Measurements published in patent publication US20170360947A1, “POLYMER PARTICLES AND BIOMATERIALS COMPRISING THE SAME” (UNIVERSITE DE BORDEAUX, priority 2014, published 2017).
≈ marks a conversion by molar mass, not a printed value.

Legend:
[1] = test system: MRSA BCB8; assay: MIC determination in Mueller-Hinton broth (absorbance at 600 nm); format: cell-based, S. aureus
Description: From a 24 h bacterial culture, MRSA BCB8 were suspended in Mueller-Hinton broth to obtain a 0.5 McF suspension, which was diluted to a final concentration of 1.10^6 CFU·ml^−1.
Then twofold serial dilutions of chemicals were prepared (from 256 μg·ml^−1 to 0.06 μg·ml^−1) and 100 μl of MRSA BCB8 suspension were incubated with 200 μl of chemical containing solutions for 24 h at 37° C.
After this time, suspension absorbances were measured at 600 nm. MICs were determined as the minimal concentration for which the lowest absorbance is observed.

[2] = test system: MRSA strain obtained from blood cultures; assay: Gentamicin susceptibility of the MRSA strain studied in vivo; format: cell-based, S. aureus
Description: Strain studied: an MRSA strain obtained from blood cultures (gentamicin MIC<0.5 μg/mL). Assessment of the animal model was realized with 10^3 CFU/mL inoculum.

## α-Norbornenyl-ω-Vancomycin Poly(Ethylene Oxide) [macro Vanco]
[1]; MRSA BCB8, 24 h at 37° C., lowest absorbance at 600 nm
  MIC: 1.3 µg/mL

## CN[C@H](CC(C)C)C(=O)N[C@H]1C(=O)N[C@@H](CC(N)=O)C(=O)N[C@H]2C(=O)N[C@H]3C(=O)N[C@H](C(=O)N[C@H](C(=O)O)c4cc(O)cc(O)c4-c4cc3ccc4O)[C@H](O)c3ccc(c(Cl)c3)Oc3cc2cc(c3O[C@@H]2O[C@H](CO)[C@@H](O)[C@H](O)[C@H]2O[C@H]2C[C@](C)(N)[C@H](O)[C@H](C)O2)Oc2ccc(cc2Cl)[C@H]1O [Vancomycin]
[1]; Staphylococcus aureus, MRSA, 24 h
  MIC: 0.6 µg/mL (≈ 0.414 µM)

## gentamicin
[2]
  gentamicin MIC: < 0.5 µg/mL
